Numbering of substitutions follows the chain as printed. pIC50: −log10 of the molar value. Where two headings read alike, the source gives them in different places.
Target: T1, IDH2 R140Q + Q316E trans (Homo sapiens, UniProt P48735, Q316E/R140Q)
T1 construct: expressed in transfected cells; host or cells: U-87 MG
T1 sequence (P48735 40-452 R140Q): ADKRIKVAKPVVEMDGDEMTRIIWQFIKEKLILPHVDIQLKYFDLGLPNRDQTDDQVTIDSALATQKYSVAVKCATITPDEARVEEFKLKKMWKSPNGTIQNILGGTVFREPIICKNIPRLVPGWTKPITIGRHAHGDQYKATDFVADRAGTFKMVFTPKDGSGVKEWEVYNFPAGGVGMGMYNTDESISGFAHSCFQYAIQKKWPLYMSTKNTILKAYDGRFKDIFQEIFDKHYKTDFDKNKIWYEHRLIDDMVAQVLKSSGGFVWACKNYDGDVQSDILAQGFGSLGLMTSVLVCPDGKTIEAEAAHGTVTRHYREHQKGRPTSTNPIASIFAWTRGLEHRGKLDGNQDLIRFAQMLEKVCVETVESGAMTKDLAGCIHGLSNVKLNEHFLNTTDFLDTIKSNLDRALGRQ
T1 sequence (P48735 40-452 Q316E): T1 sequence (P48735 40-452 R140Q) with Q101R, Q277E
Assay: Inhibition of 2-HG production in IDH2 mutant U-87 MG cells
Format: cell-based
Experimental: Compounds and Formulation. Compound A may be synthesized as described in WO/18/111707. Compound A is prepared as a 20 mM stock in 100% DMSO (dimethyl sulfoxide) (Sigma, D2438) and diluted serially in 100% DMSO to achieve the desired concentrations. DMSO preparations are further diluted with cell culture media prior to addition in the assay.
Cell lines. U-87 MG cells (ATCC, HTB-14) are cultured and assayed in MEM (Gibco, 11095) with 2 mM GlutaMAX (Gibco, 35050), 1 mM Pyruvate (Gibco, 11360), 0.1 mM NEAA ((Non-essential amino acid) Gibco, 11140) and 10% dialyzed FBS (Fetal bovine serum) (Gibco, 26400).
Cell-based inhibition assays. Cell-based assays are performed by measuring 2-HG in U-87 MG cells in which IDH2 mutations are expressed.
DNA constructs encoding IDH2 mutations are introduced into U-87 MG cells using transfection (Promega FuGENE HD, E2311) or lentiviral transduction, and the IDH2-mutant expressing cell lines are selected using blasticidin (5 μg/ml) or puromycin (1 μg/ml). Second site mutations (Q316E, I319M, P167R, and G260A) are evaluated in cis (same monomer as driver mutation within dimer) or in trans (opposite monomer from driver mutation in dimer). For compound treatments, 12,500 or 50,000 cells per well in culture medium (150 μl or 100 μl, respectively) are plated in 96 well cell culture plates (Falcon, 353377) 2 hrs prior to treatment. Cells are treated with serial dilutions of compound A in standard growth media. Plates are incubated in a mammalian cell culture incubator (humidified, 37° C., 5% CO2) for 16 or 72 hrs. Following the incubation period, the media is aspirated and cell extracts are prepared by addition of ice-cold 80% methanol/20% water (100 μL) containing liquid chromatography-mass spectrometry (LC-MS) internal standards (1 μM ^13C4 α-KG and ^13C5 2-HG) per well for ion pairing LC-MS method. 96-well sample plates are then sealed, shaken at 450 rpm for 10 min, and then placed at −20° C. and stored until LC-MS analysis.
LC-MS metabolite analysis of conditioned media and cell lysates. The effect of inhibitors on the concentrations of 2-HG are determined by LC-MS analysis of cell lysates using an ion-pairing method as described below.
Calibration curves are prepared by spiking 2-HG and α-KG into 80% methanol/20% water containing LC-MS internal standards (1 μM ^13C4 α-KG and 1 μM ^13C5 2-HG). The quantitation of 2-HG and α-KG is accomplished using an AB Sciex 6500 mass spectrometer with an Electrospray Ionization (ESI) probe and interfaced with an Ultra Performance Liquid Chromatography (UHPLC) system in the negative multiple-reaction monitoring (MRM) mode. The UHPLC system consists of an Agilent 1290 binary pump, thermostatted column compartment (TCC), and sampler. The injection volume is 1 μL for cell culture extracts. The extracts are chromatographically resolved using a Hypercarb column, 2.1×20 mm, […] Javelin HTS (Thermo Scientific, PN: 35005-022135). Mobile phase A is water/10 mM tributylamine/15 mM acetic acid. Mobile phase B is acetonitrile/20 mM tributylamine/30 mM acetic acid. The solvent flow rate is 1.0 mL/min. The isocratic condition is kept at 26% mobile phase B. The valve, sample loop, and needle are washed with 50% acetonitrile: 50% methanol for 20 seconds. The column temperature is kept at 55° C. Calibration curves are calculated by least-square linear regression with 1/x weighting. 2-HG and α-KG are quantified using standard curve and ratio of the peak area of analytes to internal standard. Data analysis is performed using MultiQuant 3.0 (AB Sciex). The raw data are exported to Microsoft Excel spreadsheets.
Determination of IC50 Curves. IC50 curves for each compound are obtained using four parameter data fitting analysis in GraphPad/Prism software.

C=CC(=O)N1CCN([C@@H](CC2CC2)c2ccc([C@H](C)Nc3ncc4c(n3)N(CC)C(=O)OC4)cc2)CC1 [Compound A, 7-[[(1S)-1-[4-[(1S)-2-cyclopropyl-1-(4-prop-2-enoylpiperazin-1-yl)ethyl]phenyl]ethyl]amino]-1-ethyl-4H-pyrimido[4,5-d][1,3]oxazin-2-one]
pIC50 (IDH2 R140Q + Q316E trans, 72 hours incubation, 12.5K cells/well, 150 μl media/well, read-out: IC50, inhibition of 2-HG production): 8.23
IC50 (IDH2 R140Q_Q316E trans, 16 hours incubation, 50K cells/well, 100 μl media/well, read-out: Relative IC50 (nM) Mean, inhibition of 2-HG production): 23 nM

Reference: US20240261294A1, “METHOD FOR TREATING IDH INHIBITOR-RESISTANT SUBJECTS” (Eli Lilly and Company, priority 2021, published 2024)
